Measurements published in patent publication US20250313563A1, “GLYCOGEN SYNTHASE KINASE 3 INHIBITORS AND USES THEREOF” (The Broad Institute, Inc., priority 2022, published 2025).
Where two headings read alike, the source gives them in different places.

Columns and labels:
[1] = biological target: GSK3α (GST-full length GSK3α) (Homo sapiens (Human), UniProt P49840); assay: GSK3α TR-FRET kinase assay; type: biochemical
Summary of the method: (§1)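 1 nM GST-GSK3α/β + cpd, 30 min preinc; add 200 nM biotin-pS645 GS(631-650) peptide + ATP (α 4 μM / β 2 μM, or 1 mM); 100 min RT, 50 mM Tris pH 7.5, 20 mM MgCl2, 1% DMSO; EDTA stop; SA-d2/Tb-pSer641 Ab 60 min; 665/615 ratio → IC50.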

[2] = biological target: GSK3b (GST-full length GSK3b) (Homo sapiens (Human), UniProt P49841); assay: GSK3b TR-FRET kinase assay; type: biochemical
Summary of the method: as §1

[3] = 1 nM GSK3α, 4 μM ATP, 30 minute preincubation, Table 16, read-out: GSK3-A TR-FRET BIOCHEMICAL (TR-FRET)
[4] = 1 nM GSK3b, 2 μM ATP, 30 minute preincubation, Table 16, read-out: GSK3-B TR-FRET BIOCHEMICAL (TR-FRET)
[5] = 1 nM GSK3α, 4 μM ATP, 30 minute preincubation, read-out: GSK3-A TR-FRET BIOCHEMICAL (TR-FRET), IC50
[6] = 1 nM GSK3b, 2 μM ATP, 30 minute preincubation, read-out: GSK3-B TR-FRET BIOCHEMICAL (TR-FRET), IC50
[7] = GSK3-A (TR-FRET 1 mM ATP), GMean, IC50, 1 mM ATP, geometric mean
[8] = GSK3-B (TR-FRET 1 mM ATP), GMean, IC50, 1 mM ATP, geometric mean
[9] = 1 nM GSK3α, 4 μM ATP, 30 minute preincubation, geometric mean, read-out: GSK3-A TR-FRET BIOCHEMICAL (TR-FRET), GMean, IC50
[10] = 1 nM GSK3b, 2 μM ATP, 30 minute preincubation, geometric mean, read-out: GSK3-B TR-FRET BIOCHEMICAL (TR-FRET), GMean, IC50
[11] = 1 nM GSK3α, 4 μM ATP, 30 minute preincubation, Table 16, read-out: GSK3-A TR-FRET BIOCHEMICAL (TR-FRET), IC50
[12] = 1 nM GSK3b, 2 μM ATP, 30 minute preincubation, Table 16, read-out: GSK3-B TR-FRET BIOCHEMICAL (TR-FRET), IC50
[13] = read-out: GSK3-A (TR-FRET 1 mM ATP), GMean, IC50, 1 mM ATP, geometric mean
[14] = read-out: GSK3-B (TR-FRET 1 mM ATP), GMean, IC50, 1 mM ATP, geometric mean

Sequence of GSK3α (GST-full length GSK3α) (P49840 whole entry): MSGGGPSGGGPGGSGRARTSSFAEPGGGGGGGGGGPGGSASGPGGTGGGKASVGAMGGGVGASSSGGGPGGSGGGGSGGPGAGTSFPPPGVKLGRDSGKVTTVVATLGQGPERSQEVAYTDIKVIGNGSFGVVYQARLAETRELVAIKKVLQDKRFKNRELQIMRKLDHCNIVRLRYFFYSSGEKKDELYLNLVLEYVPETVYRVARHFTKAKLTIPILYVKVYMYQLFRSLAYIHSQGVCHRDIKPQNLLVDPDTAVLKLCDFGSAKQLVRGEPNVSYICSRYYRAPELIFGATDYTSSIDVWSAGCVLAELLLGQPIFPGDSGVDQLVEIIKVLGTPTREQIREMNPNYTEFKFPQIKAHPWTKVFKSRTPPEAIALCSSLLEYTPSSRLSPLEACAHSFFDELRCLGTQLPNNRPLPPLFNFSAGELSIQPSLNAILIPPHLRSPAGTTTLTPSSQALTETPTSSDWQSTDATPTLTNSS
Sequence of GSK3b (GST-full length GSK3b) (P49841 whole entry): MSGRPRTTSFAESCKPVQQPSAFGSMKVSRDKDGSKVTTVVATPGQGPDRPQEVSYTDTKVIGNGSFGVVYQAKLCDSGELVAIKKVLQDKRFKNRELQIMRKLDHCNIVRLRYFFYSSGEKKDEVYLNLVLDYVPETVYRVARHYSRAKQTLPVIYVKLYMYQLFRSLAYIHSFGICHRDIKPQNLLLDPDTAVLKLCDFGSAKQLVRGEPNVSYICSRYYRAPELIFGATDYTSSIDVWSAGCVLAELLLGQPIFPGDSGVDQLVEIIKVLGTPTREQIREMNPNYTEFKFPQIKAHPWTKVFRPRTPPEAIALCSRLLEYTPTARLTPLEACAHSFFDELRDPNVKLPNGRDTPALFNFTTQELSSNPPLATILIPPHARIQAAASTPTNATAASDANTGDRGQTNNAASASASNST

SMILES: CC1(C)CC(=O)C2=C(C1)Nc1n[nH]cc1C21CN(C(=O)OCc2ccccc2)C1 [Compound 889568]
- IC50 [1, 3]: 100 to 1000 nM
- IC50 [2, 4]: 1000 to 5000 nM

SMILES: CC1(C)CC(=O)C2=C(C1)Nc1n[nH]cc1C21CCCCCC1 [Compound 883978]
- IC50 [1, 3]: 100 to 1000 nM
- IC50 [2, 4]: 100 to 1000 nM

SMILES: CCC1(c2cccc(-c3cnco3)c2)C2=C(CC(C)(C)CC2=O)Nc2n[nH]cc21 (stereo not drawn) [Compound 944025]
- IC50 [1, 3]: ≤ 100 nM
- IC50 [2, 4]: 100 to 1000 nM

SMILES: CC[C@@]1(c2cccc(C(F)(F)F)c2)C2=C(CN(c3ccccc3)C2=O)Nc2n[nH]cc21 [Compound 945376]
- IC50 [1, 5]: > 5000 nM
- IC50 [2, 6]: > 5000 nM

SMILES: CC1(C)CC(=O)C2=C(C1)Nc1n[nH]cc1[C@@]21CCC[C@@H](C#N)C1 [Compound 945906]
- IC50 [1, 3]: 100 to 1000 nM
- IC50 [2, 4]: 100 to 1000 nM

SMILES: CC(C)S(=O)(=O)N1CCC2(CC1)C1=C(Nc3n[nH]cc32)[C@H](F)C(C)(C)CC1=O [Compound 951701]
- IC50 [1, 5]: ≤ 100 nM
- IC50 [1, 7]: 100 to 1000 nM
- IC50 [2, 6]: ≤ 100 nM
- IC50 [2, 8]: 1000 to 5000 nM

SMILES: CC[C@@]1(c2ccccc2)C2=C(C[C@](C)(COC)CC2=O)Nc2n[nH]cc21 [Compound 816874]
- IC50 [1, 9]: > 5000 nM
- IC50 [2, 10]: > 5000 nM

SMILES: CCC1(c2cccc(-c3cnn4c3CCCC4)c2)C2=C(CC(C)(C)NC2=O)Nc2n[nH]c(C(F)(F)F)c21 (stereo not drawn) [Compound 947801]
- IC50 [1, 9]: ≤ 100 nM
- IC50 [2, 10]: ≤ 100 nM

SMILES: CCc1cccc(C2(CC)C3=C(CC(C)(C)CC3=O)Nc3n[nH]cc32)c1 (stereo not drawn) [Compound 949391]
- IC50 [1, 3]: 1000 to 5000 nM
- IC50 [2, 4]: > 5000 nM

SMILES: Cn1ccc(S(=O)(=O)N2CC[C@]3(C2)C2=C(CC(C)(C)CC2=O)Nc2n[nH]cc23)n1 [Compound 945712]
- IC50 [1, 5]: ≤ 100 nM
- IC50 [1, 7]: ≤ 100 nM
- IC50 [2, 6]: ≤ 100 nM
- IC50 [2, 8]: 100 to 1000 nM

SMILES: CCC1(c2cccc(-c3ccnc(C)n3)c2)C2=C(CC(C)(C)CC2=O)Nc2n[nH]cc21 (stereo not drawn) [Compound 948088]
- IC50 [1, 3]: 100 to 1000 nM
- IC50 [2, 4]: 1000 to 5000 nM

SMILES: CC1(C)CC(=O)C2=C(C1)Nc1n[nH]cc1C21CN(S(=O)(=O)c2ccccc2)C1 [Compound 901474]
- IC50 [1, 3]: ≤ 100 nM
- IC50 [2, 4]: ≤ 100 nM

SMILES: CC[C@@]1(c2cccc(-c3ccnc4ccc(C)cc34)c2)C2=C(CC(C)(C)NC2=O)Nc2n[nH]cc21 [Compound 948658]
- IC50 [1, 9]: > 5000 nM
- IC50 [2, 10]: > 5000 nM

SMILES: CC1(C)CC(=O)C2=C(C1)Nc1n[nH]cc1C21CCN(S(=O)(=O)c2ccccc2)CC1 [Compound 874530]
- IC50 [1, 3]: ≤ 100 nM
- IC50 [1, 7]: 100 to 1000 nM
- IC50 [2, 4]: ≤ 100 nM
- IC50 [2, 8]: 1000 to 5000 nM

SMILES: COc1cccc(S(=O)(=O)N2CCC3(CC2)C2=C(CC(C)(C)CC2=O)Nc2n[nH]cc23)c1 [Compound 943962]
- IC50 [1, 3]: ≤ 100 nM
- IC50 [1, 5]: ≤ 100 nM
- IC50 [2, 4]: 100 to 1000 nM
- IC50 [2, 6]: 100 to 1000 nM

SMILES: CCC1(c2cccc(-c3cc(C)nn3C)c2)C2=C(CC(C)(C)NC2=O)Nc2n[nH]cc21 (stereo not drawn) [Compound 943966]
- IC50 [1, 5]: ≤ 100 nM
- IC50 [2, 6]: 100 to 1000 nM

SMILES: CCC1(c2cccc(-c3cc(C)ncc3F)c2)C2=C(CC(C)(C)CC2=O)Nc2n[nH]cc21 (stereo not drawn) [Compound 927339]
- IC50 [1, 11]: 1000 to 5000 nM
- IC50 [2, 12]: > 5000 nM

SMILES: CC[C@]1(c2cccc(S(C)(=O)=O)c2)C2=C(CC(C)(C)CC2=O)Nc2n[nH]cc21 [Compound 826719]
- IC50 [1, 9]: 1000 to 5000 nM
- IC50 [2, 10]: > 5000 nM

SMILES: COC(=O)C1(c2ccccc2)CC2(C1)C1=C(CC(C)(C)CC1=O)Nc1n[nH]cc12 (stereo not drawn) [Compound 942366]
- IC50 [1, 3]: ≤ 100 nM
- IC50 [2, 4]: ≤ 100 nM

SMILES: CC1(C)CC(=O)C2=C(C1)Nc1n[nH]cc1C21COC2(CN(C(=O)C(C)(C)C)C2)C1 (stereo not drawn) [Compound 947303]
- IC50 [1, 5]: ≤ 100 nM
- IC50 [2, 6]: ≤ 100 nM

SMILES: CC1(C)CC(=O)C2=C(C1)Nc1n[nH]cc1C21COC2(CN(C(=O)C3CC3)C2)C1 (stereo not drawn) [Compound 947297]
- IC50 [1, 5]: ≤ 100 nM
- IC50 [2, 6]: ≤ 100 nM

SMILES: CCC1(c2cccc(-c3ccncc3OC)c2)C2=C(CC(C)(C)CC2=O)Nc2n[nH]cc21 (stereo not drawn) [Compound 945481]
- IC50 [1, 3]: ≤ 100 nM
- IC50 [1, 13]: ≤ 100 nM
- IC50 [2, 4]: ≤ 100 nM
- IC50 [2, 14]: 100 to 1000 nM

SMILES: CC[C@]1(c2cccc(-c3ccnc(C)c3)c2)C2=C(CC3(CCC3)NC2=O)Nc2n[nH]cc21 [Compound 949520]
- IC50 [1, 11]: ≤ 100 nM
- IC50 [2, 12]: 100 to 1000 nM

SMILES: CC[C@]1(c2ccc(C)cc2)C2=C(CC(C)(C)CC2=O)Nc2n[nH]cc21 [Compound 789458]
- IC50 [1, 9]: > 5000 nM
- IC50 [2, 10]: > 5000 nM

SMILES: CC[C@]1(c2cccc(-c3ccncc3F)c2)C2=C(CC(C)(C)NC2=O)Nc2n[nH]c(F)c21 [Compound 949643]
- IC50 [1, 11]: > 5000 nM
- IC50 [2, 12]: > 5000 nM

SMILES: CC[C@@]1(c2cccc(-c3cnn4ccncc34)c2)C2=C(CC(C)(C)NC2=O)Nc2n[nH]cc21 [Compound 949263]
- IC50 [1, 11]: > 5000 nM
- IC50 [2, 12]: > 5000 nM

SMILES: CC1(C)CC(=O)C2=C(C1)Nc1n[nH]cc1C21COC2(CN(C(=O)c3ccccc3)C2)C1 (stereo not drawn) [Compound 917231]
- IC50 [1, 5]: ≤ 100 nM
- IC50 [2, 6]: ≤ 100 nM

SMILES: CCC1(c2cccc(Br)c2)C2=C(CC(C)(C)CC2=O)Nc2n[nH]c(C(F)(F)F)c21 (stereo not drawn) [Compound 810365]
- IC50 [1, 9]: > 1670 nM
- IC50 [2, 10]: > 1670 nM

SMILES: CC1(C)CC(=O)C2=C(C1)Nc1n[nH]cc1[C@@]21CCN(S(=O)(=O)c2ccccc2F)C1 [Compound 945719]
- IC50 [1, 3]: ≤ 100 nM
- IC50 [2, 4]: ≤ 100 nM

SMILES: CC(C)S(=O)(=O)N1CCC2(CC1)C1=C(Nc3n[nH]cc32)[C@@H](F)C(C)(C)CC1=O [Compound 951714]
- IC50 [1, 5]: ≤ 100 nM
- IC50 [1, 7]: 100 to 1000 nM
- IC50 [2, 6]: ≤ 100 nM
- IC50 [2, 8]: 100 to 1000 nM

SMILES: CC[C@@]1(c2ccccc2)C2=C(Nc3n[nH]cc31)[C@H](C)C[C@H](C)C2=O [Compound 909219]
- IC50 [1, 11]: > 5000 nM
- IC50 [2, 12]: > 5000 nM

SMILES: CC[C@]1(c2cccc(S(C)(=O)=O)c2)C2=C(CC(C)(C)NC2=O)Nc2n[nH]cc21 [Compound 945604]
- IC50 [1, 5]: ≤ 100 nM
- IC50 [2, 6]: ≤ 100 nM

SMILES: CC[C@@]1(c2cccc(-c3cc(C4CCCC4)nn3C)c2)C2=C(CC(C)(C)NC2=O)Nc2n[nH]cc21 [Compound 949509]
- IC50 [1, 11]: > 5000 nM
- IC50 [2, 12]: > 5000 nM

SMILES: Cc1ccc(C(=O)N2CC3(C2)C[C@]2(CO3)C3=C(CC(C)(C)CC3=O)Nc3n[nH]cc32)cc1C [Compound 948039]
- IC50 [1, 5]: 100 to 1000 nM
- IC50 [2, 6]: 1000 to 5000 nM

SMILES: CC1(C)CC(=O)C2=C(C1)Nc1n[nH]cc1C21CCC2(CC1)COC2 [Compound 883977]
- IC50 [1, 5]: ≤ 100 nM
- IC50 [2, 6]: 100 to 1000 nM

SMILES: CC[C@@]1(c2cccc(-c3ccnn3C)c2)C2=C(Nc3n[nH]cc31)[C@H](F)C(C)(C)CC2=O [Compound 957507]
- IC50 [1, 3]: ≤ 100 nM
- IC50 [1, 13]: ≤ 100 nM
- IC50 [2, 4]: ≤ 100 nM
- IC50 [2, 14]: 1000 to 5000 nM

SMILES: CC1(C)CC(=O)C2=C(C1)Nc1n[nH]c(CCC(F)(F)F)c1C2(C)c1ccccc1 (stereo not drawn) [Compound 856948]
- IC50 [1, 9]: > 5000 nM
- IC50 [2, 10]: > 5000 nM

SMILES: CCC1(c2cccc(N3CCOc4ncccc43)c2)C2=C(CC(C)(C)CC2=O)Nc2n[nH]cc21 (stereo not drawn) [Compound 932663]
- IC50 [1, 3]: ≤ 100 nM
- IC50 [2, 4]: ≤ 100 nM

SMILES: CC1(C)CC(=O)C2=C(C1)Nc1n[nH]cc1C21CCc2c(Cl)cccc21 (stereo not drawn) [Compound 816795]
- IC50 [1, 9]: ≤ 100 nM
- IC50 [2, 10]: 100 to 1000 nM

SMILES: CCC1(c2cccc(OC)c2)C2=C(CC(C)(C)CC2=O)Nc2n[nH]cc21 (stereo not drawn) [Compound 801447]
- IC50 [1, 9]: 100 to 1000 nM
- IC50 [2, 10]: 1000 to 5000 nM

SMILES: CC1(C)CC(=O)C2=C(C1)Nc1n[nH]c(Br)c1C21CCNc2ccccc21 (stereo not drawn) [Compound 810460]
- IC50 [1, 9]: 1000 to 5000 nM
- IC50 [2, 10]: > 5000 nM
